Assay [1] concerns the target T1, β-lactamase from E. coli TEM (Escherichia coli, UniProt P62593).
T1 construct: directly isolated from Enterobacter cloacae P99, E. coli TEM and Citrobacter freundii; endogenous in cells; host or cells: E. coli TEM (plasmid-carried enzyme of the strain)
The assay is described as follows: Stability against β-lactamase, relative hydrolysis. The format is biochemical. As to conditions: E. coli TEM enzyme; 100 μM; relative(percentage), Cephaloridine taken as 100; OD at 260 nm. How it is done:
(§1) In order to establish the usefulness in clinical applications of the compounds provided by the invention, the compound of Example 18 was tested for stability against the β-lactamase and for antibacterial activity on systemic infection model.
(§2) First, the stability against the β-lactamase was tested by determining the relative(percentage) hydrolysis of the compound of Example 18, relative to that of Cephaloridine, taking the absolute rate of Cephaloridine as 100.
(§3) The β-lactamases employed in the test were directly isolated from Enterobacter cloacae P99, E. coli TEM and Citrobacter freundii, and the antibiotics for comparison were Cephaloridine, Cephradine, Cefoperazone and Cefotaxime.
(§4) Cephaloridine, other known antibiotics and the compound of Example 18 were reacted with each of the enzymes isolated from the strains and the OD were determined at 260 nm, λmax of Cephaloridine. The relative hydrolysis of various compounds were calculated relative to the OD of Cephaloridine.

Assay [2] deals with T2, β-lactamase from Citrobacter freundii (Citrobacter freundii, UniProt P05193).
T2 construct: directly isolated from Enterobacter cloacae P99, E. coli TEM and Citrobacter freundii; endogenous in cells
The assay is described as follows: Stability against β-lactamase, relative hydrolysis. Format: biochemical. As to conditions: Citrobacter freundii enzyme; 100 μM; relative(percentage), Cephaloridine taken as 100; OD at 260 nm. The method, then: as §1, §2, §3, §4

In assay [3] the target is T3, β-lactamase from Enterobacter cloacae P99 (Enterobacter cloacae, UniProt P05364).
T3 construct: directly isolated from Enterobacter cloacae P99, E. coli TEM and Citrobacter freundii; endogenous in cells; host or cells: Enterobacter cloacae P99
The assay is described as follows: Stability against β-lactamase, relative hydrolysis. The format is biochemical. The conditions noted are these: Enterobacter cloacae P99 enzyme; 100 μM; relative(percentage), Cephaloridine taken as 100; OD at 260 nm. The method, then:
as §3
The relative hydrolysis of various compounds were calculated relative to the OD of Cephaloridine.

A further assay has as its system Escherichia coli 1507E. Put plainly: Antibacterial activity, MIC by Agar dilution method, standard test strain 11. The conditions noted are these: Escherichia coli 1507E; 10^7 CFU/ml, 37° C., 18 hours; read-out: MIC. Format: cell-based. The method, then:
(§5) The antibacterial activity was determined by an Agar dilution method as described below.
(§6) That is, the two-fold serial dilutions of the antibacterial compounds (1000 μg compound/ml) were prepared and dispersed in Muller Hinton Agar in a petri dish to a concentration of 100~0.002 μg/ml. The culture broths of standard test strains were inoculated on the medium to a concentration 10^7 CFU/ml, and incubated at 37° C. for 18 hours. The concentration of compounds(I) at which the strains were not grown was regarded as minimum inhibition concentration (MIC).
(§7) The results of antibacterial activity test of the representative examples of the compound (I) against 20 standard test strains shown in terms of MIC were indicated in Table 1.
A general note: In agar dilution the substance is mixed into plates at graded concentrations.

In assay [4] the test system is Streptococcus pyogenes A 77. The assay is described as follows: Antibacterial activity, MIC by Agar dilution method, standard test strain 2. As to conditions: A77, 10^7 CFU/ml, 37° C., 18 hours. The format is cell-based. The method, then:
as §5, §6, §7
2. Streptococcus pyogenes A 77

The test system of the next assay is Staphyloccus aureus 285. The assay is described as follows: Antibacterial activity, MIC by Agar dilution method, standard test strain 5. The conditions noted are these: 10^7 CFU/ml, 37° C., 18 hours. Format: cell-based. How it is done:
as §5, §6, §7
5. Staphyloccus aureus 285

Assay [5] concerns Gram-positive strains as well as Gram-negative strains including Pseudomonas. Put plainly: Antibacterial activity (summary in words). Format: cell-based. The conditions noted are these: Gram-positive and Gram-negative strains. The method, then:
as §5, §6

In the next assay the test system is Escherichia coli O 55. The assay is described as follows: Antibacterial activity, MIC by Agar dilution method, standard test strain 7. The format is cell-based. As to conditions: O55; Escherichia coli O 55; 10^7 CFU/ml, 37° C., 18 hours; read-out: MIC. The method, then:
as §5, §6, §7

In the next assay the test system is Enterobacter cloacae P99. The assay is described as follows: Antibacterial activity, MIC by Agar dilution method, standard test strain 19. Format: cell-based. The conditions noted are these: P99, 18 h. How it is done: as §5, §6, §7
19. Enterobacter cloacae P99

The subject of assay [6] is Streptococcus pyogenes A 308. The assay is described as follows: Antibacterial activity, MIC by Agar dilution method, standard test strain 1. The format is cell-based. As to conditions: A308, 10^7 CFU/ml, 37° C., 18 hours. How it is done:
as §5, §6, §7
1. Streptococcus pyogenes A 308

For the next assay, the system named is Escherichia coli TEM. Put plainly: Antibacterial activity, MIC by Agar dilution method, standard test strain 10. The format is cell-based. As to conditions: Escherichia coli TEM; 10^7 CFU/ml, 37° C., 18 hours; read-out: MIC. How it is done:
as §5, §6, §7

Assay [7] deals with Pseudomonas aeruginosa 1771M. The assay is described as follows: Antibacterial activity, MIC by Agar dilution method, standard test strain 15. As to conditions: 18 h. Format: cell-based. The method, then: as §5, §6, §7
15. Pseudomonas aeruginosa 1771M

The subject of the next assay is Escherichia coli DC O. Put plainly: Antibacterial activity, MIC by Agar dilution method, standard test strain 8. Format: cell-based. As to conditions: Escherichia coli, 18 h. The method, then: as §5, §6, §7
Assay [8] deals with Pseudomonas aeruginosa 9027. The assay is described as follows: Antibacterial activity, MIC by Agar dilution method, standard test strain 12. The format is cell-based. The conditions noted are these: 10^7 CFU/ml, 37° C., 18 hours. The method, then:
as §5, §6, §7
12. Pseudomonas aeruginosa 9027

Assay [9] deals with Staphylococcus aureus 503. Put plainly: Antibacterial activity, MIC by Agar dilution method, standard test strain 6. The format is cell-based. As to conditions: 10^7 CFU/ml, 37° C., 18 hours. The method, then:
as §5, §6, §7
6. Staphylococcus aureus 503

The test system of assay [10] is Pseudomonas aeruginosa 1592E. The assay is described as follows: Antibacterial activity, MIC by Agar dilution method, standard test strain 13. Format: cell-based. The conditions noted are these: 10^7 CFU/ml, 37° C., 18 hours. The method, then:
as §5, §6, §7
13. Pseudomonas aeruginosa 1592E

The test system of assay [11] is Pseudomonas aeruginosa 1771. The assay is described as follows: Antibacterial activity, MIC by Agar dilution method, standard test strain 14. Format: cell-based. The conditions noted are these: 10^7 CFU/ml, 37° C., 18 hours. How it is done:
as §5, §6, §7
14. Pseudomonas aeruginosa 1771

For assay [12], the system named is Enterobacter cloacae 1321E. The assay is described as follows: Antibacterial activity, MIC by Agar dilution method, standard test strain 20. The format is cell-based. As to conditions: Enterobacter cloacae 1321E; 10^7 CFU/ml, 37° C., 18 hours; read-out: MIC. How it is done:
as §5, §6, §7
20. Enterobacter cloacae 1321E

A further assay relates to Klebsiella oxytoca 1082E. Put plainly: Antibacterial activity, MIC by Agar dilution method, standard test strain 17. As to conditions: 10^7 CFU/ml, 37° C., 18 hours. The format is cell-based. How it is done: as §5, §6, §7
The subject of assay [13] is Streptococcus faecium MD 86. The assay is described as follows: Antibacterial activity, MIC by Agar dilution method, standard test strain 3. Format: cell-based. As to conditions: Enterococcus faecium, MD86, 10^7 CFU/ml, 37° C., 18 hours. How it is done: as §5, §6, §7
3. Streptococcus faecium MD 86

In assay [14] the test system is Staphylococcus aureus SG 511. Put plainly: Antibacterial activity, MIC by Agar dilution method, standard test strain 4. Format: cell-based. As to conditions: SG511, 10^7 CFU/ml, 37° C., 18 hours. The method, then:
as §5, §6, §7
4. Staphylococcus aureus SG 511

For assay [15], the system named is Klebsiella aerogenes 1522E. The assay is described as follows: Antibacterial activity, MIC by Agar dilution method, standard test strain 18. The format is cell-based. The conditions noted are these: Klebsiella aerogenes 1522E; 10^7 CFU/ml, 37° C., 18 hours; read-out: MIC. How it is done:
as §5, §6, §7
18. Klebsiella aerogenes 1522E

In the next assay the test system is Salmonella typhimurium. The assay is described as follows: Antibacterial activity, MIC by Agar dilution method, standard test strain 16. Format: cell-based. As to conditions: Salmonella enterica, 10^7 CFU/ml, 37° C., 18 hours. How it is done: as §5, §6, §7
16. Salmonella typhimurium

For another assay, the system named is Escherichia coli DC 2. The assay is described as follows: Antibacterial activity, MIC by Agar dilution method, standard test strain 9. The format is cell-based. The conditions noted are these: DC2; Escherichia coli DC 2; 10^7 CFU/ml, 37° C., 18 hours; read-out: MIC. The method, then:
as §5, §6, §7

Molecules are shown by their SMILES. ≈ marks a conversion by molar mass, not a printed value.

The text below walks through data of US5336673A, “3-substituted cephem compounds” (priority 1990, dated 1994).

T2 sequence (P05193 21-381): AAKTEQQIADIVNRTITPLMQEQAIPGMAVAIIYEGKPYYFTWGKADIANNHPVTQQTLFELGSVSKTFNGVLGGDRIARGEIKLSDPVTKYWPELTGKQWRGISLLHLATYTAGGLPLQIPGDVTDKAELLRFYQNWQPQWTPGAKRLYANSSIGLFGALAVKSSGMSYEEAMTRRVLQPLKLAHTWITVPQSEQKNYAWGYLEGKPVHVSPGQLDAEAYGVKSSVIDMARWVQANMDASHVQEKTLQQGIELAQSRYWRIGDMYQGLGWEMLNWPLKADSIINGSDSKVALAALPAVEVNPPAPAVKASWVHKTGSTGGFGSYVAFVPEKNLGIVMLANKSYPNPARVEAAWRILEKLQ
T1 sequence (P62593 24-286 limits assumed): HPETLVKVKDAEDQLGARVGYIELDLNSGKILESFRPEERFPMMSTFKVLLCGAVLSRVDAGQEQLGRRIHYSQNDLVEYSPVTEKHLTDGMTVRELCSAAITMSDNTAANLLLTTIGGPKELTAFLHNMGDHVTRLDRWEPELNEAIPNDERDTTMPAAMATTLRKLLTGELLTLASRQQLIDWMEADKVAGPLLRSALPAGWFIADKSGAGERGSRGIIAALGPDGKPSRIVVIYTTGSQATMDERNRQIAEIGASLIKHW
T3 sequence (P05364 21-381): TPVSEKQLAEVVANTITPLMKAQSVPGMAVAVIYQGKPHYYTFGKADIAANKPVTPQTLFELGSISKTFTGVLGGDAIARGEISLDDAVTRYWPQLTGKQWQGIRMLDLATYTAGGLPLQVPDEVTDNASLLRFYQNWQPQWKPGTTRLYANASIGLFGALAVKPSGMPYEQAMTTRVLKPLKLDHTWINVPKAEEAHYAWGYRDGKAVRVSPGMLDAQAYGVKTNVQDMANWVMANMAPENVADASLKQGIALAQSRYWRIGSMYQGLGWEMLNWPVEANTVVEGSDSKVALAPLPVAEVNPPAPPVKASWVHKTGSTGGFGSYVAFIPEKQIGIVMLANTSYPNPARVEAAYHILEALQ

As to `CCN1CCN(C(=O)N[C@@H](C(=O)N[C@@H]2C(=O)N3C(C(=O)O)=C(CSc4nnnn4C)CS[C@H]23)c2ccc(O)cc2)C(=O)C1=O` [Cefoperazone], the “Relative hydrolysis by β-lactamase” value is listed as 38.6 in assay [1] and 1.2 in [2].
Regarding `O=C(Cc1cccs1)N[C@@H]1C(=O)N2C(C(=O)[O-])=C(C[n+]3ccccc3)CS[C@H]12` [Cephaloridine], the “Relative hydrolysis by β-lactamase” value in [1], in assay [2] and in assay [3] was 100 each time.
Usually MIC stands for the lowest concentration found to suppress growth. For the compound `CO/N=C(\C(=O)N[C@@H]1C(=O)N2C(C(=O)[O-])=C(CN3CC[N+](C)(N)CC3)CS[C@H]12)c1csc(N)n1` [Example 11, (6R,7R)-7-[(Z)-2-(2-aminothiazol-4-yl)-2-methoxyiminoacetamido]-3-[(1-amino-1-methyl-4-piperazinium)methyl]-ceph-3-em-4-carboxylate], the MIC with Escherichia coli 1507E was 0.781 µg/mL (≈ 1.53 µM); in assay [4], 0.007 µg/mL (≈ 0.0137 µM); against Staphyloccus aureus 285 it was 12.5 µg/mL (≈ 24.5 µM); in the assay with Escherichia coli O 55, 0.195 µg/mL (≈ 0.382 µM); against Enterobacter cloacae P99 it was 100 µg/mL (≈ 196 µM); in [6] it was 0.013 µg/mL (≈ 0.0255 µM). Further, the MIC in the assay on Escherichia coli TEM turned out to be 0.391 µg/mL (≈ 0.766 µM); in assay [7], 1.56 µg/mL (≈ 3.06 µM); in the assay on Escherichia coli DC O, 0.781 µg/mL (≈ 1.53 µM); in assay [8] it was 50 µg/mL (≈ 97.9 µM); in assay [9], 0.781 µg/mL (≈ 1.53 µM); in assay [10], 50 µg/mL (≈ 97.9 µM). Also, the MIC was 25 µg/mL (≈ 49 µM) in assay [11]; 0.195 µg/mL (≈ 0.382 µM) in [12]; 6.25 µg/mL (≈ 12.2 µM) in the assay with Klebsiella oxytoca 1082E; above 100 µg/mL in [13]; 1.56 µg/mL (≈ 3.06 µM) in [14]; 0.391 µg/mL (≈ 0.766 µM) in assay [15]. Moreover, the MIC was 0.391 µg/mL (≈ 0.766 µM) in the assay with Salmonella typhimurium and 0.781 µg/mL (≈ 1.53 µM) in the assay with Escherichia coli DC 2. For the same compound, in [5], the “antibacterial activity (in words)” value is given as “excellent antibacterial activity”.
